Assay results published in patent US20230357099A1, “PYRAZOLO [3,4-B] PYRIDINE-4-CARBOXAMIDE NITRIFICATION INHIBITOR” (EUROCHEM ANTWERPTEN, priority 2020, published 2023).

Assays:
[1] = system: Candidatus Nitrospira kreftii; assay: Nitrification inhibition in Candidatus Nitrospira kreftii; format: cell-based; conditions: concentration of 6.25 µM
Protocol: Candidatus Nitrospira kreftii is a high (90%) enrichment of novel comammox species. To quantify nitrification inhibition in Ca. Nitrospira kreftii, a homogenous sample was taken from the bioreactor, washed and resuspended in sterile NOB mineral salts medium supplemented with (per liter) 1 mL of a trace element stock solution composed of NTA (15 g/L), ZnSO4 · 7H2O (0.43 g/L), CoCl2 · 6H2O (0.24 g/L), MnCl2 · 4H2O (0.99 g/L), CuSO4 · 5H2O (0.25 g/L), Na2MoO4 · 2H2O (0.22 g/L), NiCl2 · 6H2O (0.19 g/L), NaSeO4·10H2O (0.021 g/L), […] (0.014 g/L), CeCl·6H2O (0.24 g/L) and 1 mL of an iron stock solution composed of NTA (10 g/L) and FeSO4 (5 g/L). The final ammonium concentration was 200 µM.
To increase the nitrification rate, the cell density was increased 5 times via centrifugation. For homogenous distribution of the flocs, Ca. Nitrospira kreftii was continuously stirred during distribution with a multichannel pipet in the 96-well plates. […]
Ammonium concentrations were measured fluorescently via a modified orthophatal-dialdehyde assay. Nitrite and nitrate concentrations were determined consecutively with a spectrophotometer (at 540 nm): for nitrite, after addition of 100 µL Griess reagent to 100 µL sample (10 min incubation at room temperature) and for nitrate, subsequent to secondary addition of 27 µL of a saturated VCl3 solution in HCl (30 min incubation at 60° C.).

[2] = system: Nitrososphaera viennensis; assay: Nitrification inhibition assay on Nitrososphaera viennensis (nitrite, Griess); format: cell-based, Nitrososphaera viennensis EN76T; conditions: 0% = as strong as 100 µM PTIO, 100% = no inhibition
Method in brief: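 N. viennensis EN76T cultures in FWM (pH 7.5, NH4Cl-supplemented), 5× concentrated, treated with compounds at 2.5 µM final (0.25% DMSO) and incubated 24 h at 42 °C. Nitrite measured by Griess absorbance at 540 nm against a standard curve. Relative nitrification normalized between DMSO (no compound) and 100 µM PTIO controls.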

[3] = system: ABIL (ammonia-binding liquid inoculum), nitrifying microbial enrichment containing both AOA and AOB; assay: Nitrification inhibition assay on ABIL (ammonium consumption); format: cell-based; conditions: 0% = as strong as 100 µM PTIO, 100% = no inhibition

CC(C)c1cc(C(=O)N2CCSCC2)c2cnn(C(C)C)c2n1 [Example 2]
inhibition at 6.25 µM [1]: 57.3%
N. viennensis - relative nitrification (%) at 0.5 µM ([2]; 0.5 µM compound): 100%
N. viennensis - relative nitrification (%) at 5 µM ([2]; 5 µM compound): 75%
N. viennensis - relative nitrification (%) at 25 µM ([2]; 25 µM compound): 0%
ABIL - relative nitrification (%) at 2 µM ([3]; 2 µM compound): 66%
activity at 10 µM ([3]; 24 h, 10 µM compound, 24 h, read-out: ABIL - relative nitrification (%) at 10 µM): -31%
